Source: patent EP2487171A1, “Dihydrobenzopyran, thiochroman, tetrahydroquinoleine and tetrahydronaphthalene derivatives and their use in anti-cancer therapy” (Université de Liège, priority 2011, dated 2012)

Experiments:
[1] = system: human U373 glioma cell line; test: Quantitative videomicroscopy (computer-assisted phase-contrast microscopy); format: cell-based; conditions: U373 cells treated at the IC50 concentration from MTT, filmed for 72h; cytostatic versus cytotoxic effects
From the text: In addition, the inventors could establish that the compounds of the invention act through a non-apoptosis-related mechanism thanks to a unique experimental approach used by the inventors, i.e. computer-assisted phase-contrast microscopy (quantitative videomicroscopy), making them good candidates as anti-cancer drugs for treating apoptosis-resistant tumor or cancer cells and for overcoming problems linked to the known anti-cancer drugs.
As the MTT test is based on the mitochondria functions, we also investigated the effects of the compounds according to the invention on cell proliferation, migration and morphology by means of a cellular imaging approach (Debeir et al., Cytometry 60:29-40, 2004; Debeir et al., IEEE Trans Med Imaging 24:697-711, 2005) in the human U373 glioma cell line, which is apoptosis-resistant but autophagy-sensitive (Lefranc F et al., Neurosurgery 2008).
Cellular imaging relied on the use of computer-assisted phase-contrast microscopy making possible to film the behaviour of living cells in culture dishes for several days.
Cells were seeded in a 25-cm^2 flask at a low density, treated or not with the compounds of the invention (at their IC50 concentration determined previously by MTT tests) and filmed thereafter for a period of 72h. The experiment was conducted in triplicate.
The behaviour of the cells, in terms of morphology, growth and death were thus investigated. The effect on the overall growth was measured by counting the number of cells on the first (0h) and the last image (72h) of each film. The global growth ratio (GGR) was then deduced by dividing the number of cells on the last image by the number of cells on the first image. The ratio GGRtreated cells / GGRcontrol cells, was further calculated thereby obtaining a value that describes the effect of compounds of the present invention on the overall cell growth.
The methodology is fully described and validated in Debeir et al., 2008, Exp Cell Res 314:2985-2998 and Mathieu et al., 2009, J Cell Mol Med, Feb 20, 2009.
Thanks to the quantitative videomicroscopy (QVM) approach, we classified the compounds into 4 distinctive classes on the basis of their cytostatic versus cytotoxic effects (Table 3). • Class I: actually cytostatic for 3 days (< 10 % of cell death at the 3rd day) • Class II: cytostatic but becomes cytotoxic with < 10% cell death on the 2nd day and > 20% of cell death on the 3rd day • Class III: cytostatic but rapidly becomes cytotoxic with < 10% cell death on the 1st day, > 20% of cell death on the 2nd day and > 50% of cell death on the 3rd day • Class IV: cytotoxic (> 50% of cell death on the first day)
In Fig. 1a, compounds of example 14 (5 µM), example 19 (20 µM) and example 23 (5 µM) belong to QVM Class I because they display cytostatic effects on human U373 GBM cells during the whole duration of the experiment. Cytostatic effects mean that < 10 % of cell death was recorded at the end of the experiment, i.e. at the end of the 3rd day. QVM analyses enable the global growth ratio (GGR) to be calculated in each experiment. The GGR index is obtained by dividing the number of cells in the last image by the number of cells in the first image of the experiment, knowing that 1080 images are taken during the 72 h-period of observation. The ratio GGR^treated cells / GGR^control cells was further calculated thereby obtaining a value that describes the effect of compounds on the overall cell growth. Thus, a GGR index of 0.2 means that they remain only 20% of treated cells compare to the control cells at the end of the experiment.

[2] = system: three Human Glioma Cell Lines; test: MTT colorimetric assay, mean over the three glioma cell lines; format: cell-based; conditions: mean of the three human glioma cell lines, 72h (Table 2); read-out: Mean IC50 MTT values ± SEM (µM) Glioma - Human Brain cancer cells (I - 72h)
Experimental: (§1) Table 2: Bioselectivity determined by dividing the IC50 obtained with glioma cell lines by the IC50 obtained with normal astrocytes. Bioselectivity was determined only for those compounds whose mean + SEM values on the three human glioma cell lines were ≤ 20 µM.

[3] = system: Astrocytes - Mouse normal brain cells; test: MTT colorimetric assay on normal astrocytes (bioselectivity); format: cell-based; conditions: Astrocyte, primocultures of astrocytes from newborn mice, 72h, read-out: Mean IC50 MTT values ± SEM (µM) Astrocytes - Mouse normal brain cells (II - 72h)
U373 = test: MTT colorimetric assay, overall cell growth; format: cell-based; conditions: Homo sapiens, U373 MG; U373 cells, 72 hours of incubation; read-out: IC50 (µM) In Vitro Growth Inhibitory Concentrations (MTT Colorimetric Assay) U373
Experimental: (§2) The compounds and particularly dihydrobenzopyran, thiochroman, tetrahydroquinoleine and tetrahydronaphthalene derivatives of the invention were evaluated for their anti-proliferative effect (by means of the colorimetric MTT assay), in the following human glioblastoma cell-lines U373, T98G and Hs683 and in the mouse glioma cell line GL261. Normal brain cells (primocultures from newborn mice) were also used in order to determine the bioselectivity (B^N/C) of the compounds of interest, i.e. the ratio between the concentrations that inhibits 50% of the growth of brain cancer (C) cells (glioma cells) and the concentration that inhibits 50% of the growth of normal (N) brain cells (primocultures of astrocytes). The ideal situation to be reached is a bioselectivity of B^N/C > 10.
(§3) MTT tests were performed in order to rapidly, i.e. within 5 days, measure the effect of compounds of this invention on the overall cell growth. The test measured the number of metabolically active living cells that were able to transform the yellow product 3-(4,5-dimethylthiazol-2-yl)-2,5-diphenyl tetrazolium bromide (herein referred as MTT) into the blue product formazan dye by mitochondrial reduction. The amount of formazan obtained at the end of the experiment, measured by means of a spectrophotometer, is directly proportional to the number of living cells. Optical density determination thus enabled a quantitative measurement of the effect of the investigated compounds as compared to the control condition (untreated cells) and/or to other reference compounds.
(§4) Three human cancer cell lines were used in the following MTT tests.
(§5) To perform the assay, cells were allowed to grow in 96-well micro-wells with a flat bottom with an amount of 100 µl of cell suspension per well with 1,000 to 8,000 cells/well depending on the cell type used. Each cell line was seeded in its appropriate culture medium.
(§6) The detailed experimental procedure was the following: after a 24-hour period of incubation at 37°C, the culture medium was replaced by 100 µl of fresh medium in which the tested compound was previously dissolved, at the following molar concentrations: 10^-8 M, 5.10^-8 M, 10^-7 M, 5.10^-7 M, 10^-6 M, 5.10^-6 M, 10^-5 M, 5.10^-5 M and 10^-4 M. Each experiment was performed in sextuplicate (6 times).
(§7) After 72 hours of incubation at 37°C with (experimental conditions) or without (control condition) the compound to be tested, the medium was replaced by 100 µl MTT dissolved in RPMI (1640 without phenol red) at a concentration of 0.5 mg/ml. The micro-wells were subsequently incubated during 3 hours and a half at 37°C and centrifuged at 1300 rpm during 10 minutes. MTT was removed and formazan crystals formed were dissolved in 100 µl DMSO. The micro-wells were shaken for 5 minutes and read on a spectrophotometer at wavelengths of 570 nm (maximal formazan absorbance).
(§8) For each experimental condition, the mean optical density was calculated, allowing the determination of the percentage of remaining living cells in comparison to the control.

[4] = system: Astrocytes - Mouse normal brain cells; test: MTT colorimetric assay on normal astrocytes (bioselectivity); format: cell-based
Experimental: as §1

T98G = test: MTT colorimetric assay, overall cell growth; conditions: Homo sapiens, 72 h, read-out: IC50 (µM) In Vitro Growth Inhibitory Concentrations (MTT Colorimetric Assay) T98G;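 further: growth inhibition of the human glioblastoma line measured by MTT reduction to formazan, optical density read on a spectrophotometer at 570 nm, untreated cells as control, nine concentrations from 10 nM to 100 µM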
Experimental: The compounds and particularly dihydrobenzopyran, thiochroman, tetrahydroquinoleine and tetrahydronaphthalene derivatives of the invention were evaluated for their anti-proliferative effect (by means of the colorimetric MTT assay), in the following human glioblastoma cell-lines U373, T98G and Hs683 and in the mouse glioma cell line GL261. Normal brain cells (primocultures from newborn mice) were also used in order to determine the bioselectivity (B^N/C) of the compounds of interest, i.e. the ratio between the concentrations that inhibits 50% of the growth of brain cancer (C) cells (glioma cells) and the concentration that inhibits 50% of the growth of normal (N) brain cells (primocultures of astrocytes).
as §3, §4, §5, §6
The micro-wells were subsequently incubated during 3 hours and a half at 37°C and centrifuged at 1300 rpm during 10 minutes. MTT was removed and formazan crystals formed were dissolved in 100 µl DMSO. The micro-wells were shaken for 5 minutes and read on a spectrophotometer at wavelengths of 570 nm (maximal formazan absorbance).
as §8

Hs683 = test: MTT colorimetric assay, overall cell growth; format: cell-based; conditions: Homo sapiens, Hs 683; Hs683 cells, 72 hours of incubation; read-out: IC50 (µM) In Vitro Growth Inhibitory Concentrations (MTT Colorimetric Assay) Hs683
Experimental: as §2, §3, §4, §5, §6, §7, §8

SMILES	QVM Class [1]	IC50 [2] [µM]	IC50 [3] [µM]	IC50 (U373) [µM]	Bioselectivity (I / II) [4]	IC50 (T98G) [µM]	IC50 (Hs683) [µM]
CC(C)(C)OC(=O)Nc1ccc2c(c1)C(NC(=O)Nc1cccc(C#N)c1)CC(C)(C)O2 (racemic) [Example 14, R/S-N-3-cyanophenyl-N'-(6-tert-butoxycarbonylamino-3,4-dihydro-2,2-dimethyl-2H-1-benzopyran-4-yl)urea]	I (Class I: actually cytostatic for 3 days (< 10 % of cell death at the 3rd day))	2 ± 1	> 20	2	> 10	3	2
CC(C)(C)OC(=O)Nc1ccc2c(c1)C(NC(=O)Nc1ccc(C#N)cc1)CC(C)(C)O2 (racemic) [Example 15, R/S-N-4-cyanophenyl-N'-(6-tert-butoxycarbonylamino-3,4-dihydro-2,2-dimethyl-2H-1-benzopyran-4-yl)urea]	I (Class I: actually cytostatic for 3 days (< 10 % of cell death at the 3rd day))	18 ± 5	> 200	10	>10	26	18
CC(C)(C)OC(=O)Nc1ccc2c(c1)C(NC(=O)Nc1cccc(Cl)c1)CC(C)(C)O2 (racemic) [Example 16, R/S-N-3-chlorophenyl-N'-(6-tert-butoxycarbonylamino-3,4-dihydro-2,2-dimethyl-2H-1-benzopyran-4-yl)urea]	III (Class III: cytostatic but rapidly becomes cytotoxic with < 10% cell death on the 1st day, > 20% of cell death on the 2nd day and > 50% of cell death on the 3rd day)	17 ± 3	> 200	18	>12	20	12
CC(C)(C)OC(=O)Nc1ccc2c(c1)C(NC(=O)Nc1cc(F)cc(F)c1)CC(C)(C)O2 (racemic) [Example 21, R/S-N-3,5-difluorophenyl-N'-(6-tert-butoxycarbonylamino-3,4-dihydro-2,2-dimethyl-2H-1-benzopyran-4-yl)urea]	I (Class I: actually cytostatic for 3 days (< 10 % of cell death at the 3rd day))	9 ± 3	~45	6	∼ 5	14	7
CC(C)(C)OC(=O)Nc1ccc2c(c1)C(NC(=O)Nc1ccc(Br)cc1)CC(C)(C)O2 (racemic) [Example 34, R/S-N-4-bromophenyl-N'-(6-tert-butoxycarbonylamino-3,4-dihydro-2,2-dimethyl-2H-1-benzopyran-4-yl)urea]	III (Class III: cytostatic but rapidly becomes cytotoxic with < 10% cell death on the 1st day, > 20% of cell death on the 2nd day and > 50% of cell death on the 3rd day)	–	–	22	–	21	21
CC(C)(C)OC(=O)Nc1ccc2c(c1)C(NC(=O)Nc1ccccc1C#N)CC(C)(C)O2 (racemic) [Example 36, R/S-N-2-cyanophenyl-N'-(6-tert-butoxycarbonylamino-3,4-dihydro-2,2-dimethyl-2H-1-benzopyran-4-yl)urea]	I (Class I: actually cytostatic for 3 days (< 10 % of cell death at the 3rd day))	–	–	45	–	67	54
CC(C)(C)OC(=O)Nc1ccc2c(c1)C(NC(=O)Nc1ccc(Cl)cc1C(F)(F)F)CC(C)(C)O2 (racemic) [Example 37, R/S-N-4-chloro-2-trifluoromethylphenyl-N'-(6-tert-butoxycarbonylamino-3,4-dihydro-2,2-dimethyl-2H-1-benzopyran-4-yl)urea]	II (Class II: cytostatic but becomes cytotoxic with < 10% cell death on the 2nd day and > 20% of cell death on the 3rd day)	–	–	34	–	38	30
